{
  "source": "patent US9233169B2",
  "about": "“Oligomer-bis-chromonyl compound conjugates” (NEKTAR THERAPEUTICS, priority 2008, dated 2016)",
  "origin": "cited, not measured here",
  "system": "mast cell degranulation",
  "conditions": "monkey gingiva; Nuki et al. (1975)",
  "data": [
    {"smiles": "O=C([O-])c1cc(=O)c2c(OCC(O)COc3cccc4oc(C(=O)[O-])cc(=O)c34)cccc2o1.[Na+].[Na+]", "note": "[Cromonlyn sodium, disodium 5,5′-((2-hydroxytrimethylene)dioxy)bis(4-oxo-4H-1 benzopyran-2-carboxylate)]", "values": [
      {"measurement": "inhibition of mast cell degranulation", "result": "inhibit mast cell degranulation"}
    ]}
  ]
}
